# Laboratory results published in US8729034B2, “Pharmaceutical composition having virucidal and spermicidal activity” (priority 2007, dated 2014).
# Entries after “also recorded” stand apart in the source; their conditions may differ.
# Experiments:
# NL4.3 virus = experiment: Anti-HIV activity in P4 (Hela-CD4-LTR-β Gal) cells (p24 ELISA, X-gal staining); format: cell-based, HIV-1; conditions: for Percentage inhibition of hiv growth in p4 cell line, Without Pretreatment: untreated virus; for Inhibition of viral transmission, Ac-B-treated virus: subsequent culture with or without Ac-B
# Protocol: P4 (Hela-CD4-LTR-β Gal) cells were infected with 0.05 MOI of NL4.3 virus pretreated without or with Ac-B at varying concentrations (1 hour at 37 degree C.) followed by incubation for 48 hours in the presence or absence of Ac-B at a concentration of 0.5 to 2.5 microgram per ml. Virus production was analyzed by ELISA of p24 antigen in the culture supernatant. Viral transmission in the transfected cells was evaluated by X-gal staining, in which an antiretroviral therapeutic drug, Azidothymidine (AZT) was used as positive control.
# [1] = tested on: Lactobacillus acidophilus; format: cell-based
# Protocol: The media for culture of bacteria purchased from HI-MEDIA, India and spores of Lactobacillus acidophilus were obtained from pharmaceutical capsule marketed by Infer (India) Limited.
# Sterile, molten (45-50 degree C.) Lactobacilli MRS agar was poured into sterile Petri dishes with (a) 1, 10, 100, 200, 500 mg of Ac-B (Experimental) and (b) without Ac-B (Control). The plates were placed within an incubator having 37 degree C. inside temperature and 5% CO2 in air for 72 hours. The number of colonies and their individual size were compared.
# rat spermatozoa [2] = experiment: Hypo-osmotic swelling (HOS) test; format: cell-based
# Protocol: A hypotonic solution was prepared by dissolving 0.735 g sodium citrate dehydrate and 1.351 g fructose in 100 ml distilled water (Milli Q). Aliquots of this solution kept frozen in −20 degree C. and thawed before use. For the test, 200 microliters of working suspension of rat spermatozoa was treated with one ml of Ac-B solution (at MEC) or BWW (as control) for 20 seconds followed by washing with BWW medium and centrifugation at 1000 rpm for 5 min. Finally the sperm pellet was resuspended in 0.1 ml BWW medium. One ml of prewarmed (37 degree C.) HOS solution was added to the suspension and incubated for one hour at 37 degree C. The incubated sperms were examined under a phase contrast microscope at ×400 magnification to observe the curling of tails. Two hundred spermatozoa were examined for each sample.
# Candida albicans = experiment: Effect on in vitro culture of Candida albicans for 24 hours; format: cell-based; conditions: Ac-B 125 microgram per ml; PD agar
# Protocol: Candida albicans spores were grown in vitro on Potato dextrose [PD] agar plates without (control) and with Ac-B at a concentration of 125 microgram per ml.
# human sperm = experiment: Live/dead staining (SYBR-14 / propidium iodide) of treated sperm; format: cell-based
# Protocol: Live/dead staining kit (Invitrogen: Paisley, UK), using SYBR-14 in combination with propidium iodide (PI) was used for the purpose.
# The SYBR-14 was prepared in anhydrous methyl sulfoxide (DMSO) at a concentration of 1 mg/ml. A working solution of SYBR-14 diluted 1:10 with DMSO was used for staining the sperm. The PI was dissolved in Tyrode's salt solution at 2 mg/ml.
# The human sperm samples, pre-treated without (control) or with Ac-B (experimental) and Nonoxynol 9 (positive control) were incubated for 15 min at 36 degree C. before examination. […] The fluorescent staining of sperm was monitored and photographed with a Zeiss Axiophot epifluorescent microscope (Carl Zeiss Inc., Thornwood, N.Y.) equipped with a fluorescein isothiocyanate filter set (Zeiss #487909).
# Viability of Ac-B-treated human spermatozoa was evaluated using a dual fluorescent live/dead staining kit (Invitrogen; Paisley, UK) consisting of SYBR 14 and propidium iodide (PI). PI cannot penetrate living cells but can bind to and stain cellular DNA in damaged cells giving them red fluorescence. On completion of staining reaction, proportionate distribution of green (live) and red (dead) stained spermatozoa was recorded using dual emission filter for SYBR14 and propidium iodide. In the control set all sperms were stained green but the Ac-B-treated spermatozoa (125 mcg/ml) were stained red.
# mouse spermatozoa = experiment: Sander & Cramer spermicidal assay (in vitro); format: cell-based
# Protocol: (§1) Sexually mature male mice and rats were autopsied following euthanasia by an overdose of Ketamin (≧200 mg/kg body weight; injected i.p.) and their cauda epididymis were excised. Working suspension of animal spermatozoa was prepared with the exudates obtained after careful pricking of the cauda epididymis with an injection needle (18 G) and the exudates were collected in a conical centrifuge tube.
# (§2) The exudates/liquefied human semen samples were suspended in BWW medium (pre equilibrated at 37 degree C.). The spermatozoa with forward motility were separated from immotile or sluggishly motile cells by the swim-up technique and were allowed to disperse evenly within a CO2 incubator at 37 degree C. At least five aliquots from each sample was used to prepare the working spermatozoa suspension. The swim up procedure was as follows:
# (§3) Pre equilibrated BWW medium (1.25 ml) was gently layered over cauda-exudates or liquefied human semen (1 ml) in a sterile 15 ml conical-based centrifuge tube. The tube was inclined at an angle of 45 degree and incubated for 1 hour at 37 degree C. in a CO2-incubator. It was then gently returned to the upright position and the uppermost 1 ml medium with a turbid appearance was removed. This aliquot of motile cells was pooled from each set, then diluted with same volumes of pre equilibrated BWW medium, centrifuged at 500 g for 5 minutes and finally resuspended in 1 ml pre equilibrated BWW medium to obtain a working suspension. The sperm cells were counted in a Makler chamber (Zygotec Systems, Springfield, M A, USA) and finally a working spermatozoa suspension having concentration of 25 to 30×10^6 cells/ml was prepared.
# (§4) For in vitro assay of spermicidal effect, sperms collected from proven male rats and mice, and motile spermatozoa from liquefied human semen were used.
# (§5) The assay was done following the Sander & Cramer assay method. Two hundred micro liter (200 microliters) of working spermatozoa suspension was added to 1 ml solution of test material in BWW medium and mixed on a light vortex for 10 seconds. A wet mount was immediately prepared on a clean microscopy glass slide and examined (at ×100) under a phase contrast microscope (Leitz, Biomed). The weakest concentration that immobilized all spermatozoa within 20 seconds of mixing was recorded as MEC. At least five fields were examined for each wet mount preparation. The observation was repeated with five individual spermatozoa suspension for each concentration of test compound solution. For negative control, saponin solutions were replaced by equal volume of BWW medium, while Nonoxynol 9 was used as positive control.
# rat spermatozoa [3] = experiment: Sander & Cramer spermicidal assay (in vitro); format: cell-based
# Protocol: as §1, §2, §3, §4, §5
substance,measurement,setting,value
Acaciaside-B [Ac-B],"Percentage inhibition of hiv growth in p4 cell line, Without Pretreatment","NL4.3 virus; Ac-B 0.5 microgram per ml, 48 hours",0%
same,"Percentage inhibition of hiv growth in p4 cell line, Pretreatment with Ac-B","NL4.3 virus; Ac-B 0.5 microgram per ml, virus pretreated 1 hour at 37 degree C, 48 hours",76.53%
same,"Anti-HIV activity by X-gal staining, compared with AZT",NL4.3 virus; Ac-B 1.0 microgram per ml (0.005 micromoles) vs AZT at 2 micromole,comparable to or greater than that induced by AZT
same,"Percentage inhibition of hiv growth in p4 cell line, Without Pretreatment",NL4.3 virus; Ac-B 1 microgram per ml,0%
same,"Percentage inhibition of hiv growth in p4 cell line, Pretreatment with Ac-B","NL4.3 virus; Ac-B 1 microgram per ml, virus pretreated",95.86%
same,"Percentage inhibition of hiv growth in p4 cell line, Without Pretreatment",NL4.3 virus; Ac-B 2 microgram per ml,0%
same,"Percentage inhibition of hiv growth in p4 cell line, Pretreatment with Ac-B","NL4.3 virus; Ac-B 2 microgram per ml, virus pretreated",96%
same,"Percentage inhibition of hiv growth in p4 cell line, Without Pretreatment",NL4.3 virus; Ac-B 2.5 microgram per ml,0%
same,"Percentage inhibition of hiv growth in p4 cell line, Pretreatment with Ac-B","NL4.3 virus; Ac-B 2.5 microgram per ml, virus pretreated",95.53%
same,"Inhibition of viral transmission, Ac-B-treated virus",NL4.3 virus; Ac-B greater than or equal to 1.5 microgram per ml,> 95%
same,"Inhibition of viral transmission, Ac-B-treated virus",NL4.3 virus; Ac-B ≧1.0 mcg/ml,> 95%
same,"Inhibition of viral transmission, untreated virus",NL4.3 virus; cells infected with untreated virus and cultured in the presence of Ac-B,no inhibition of viral transmission
same,Dose level not affecting growth of Lactobacillus acidophilus,[1],≥ 500 mg/mL
same,Size of Lactobacillus colonies grown in the presence of Ac-B,[1],comparable to that of control
same,"Response to HOS (HOS+), Hypo-osmotic Swelling Test","rat spermatozoa [2]; Ac-B at MEC for 20 seconds, 1 hour in HOS solution at 37 degree C",0% (HOS+)
same,HOS reactivity (curling of tails) of treated spermatozoa,rat spermatozoa [2]; Ac-B treated,no HOS reactivity; also recorded: absence of curling
same,"Number of Candida albicans colonies, presence vs absence of Ac-B",Candida albicans,no significant difference
same,Sizes of individual Candida albicans colonies,Candida albicans,comparatively smaller
same,Live/dead staining colour of treated spermatozoa,"human sperm; Ac-B 125 mcg/ml, green = live, red = dead",stained red
same,"Percentage of dead spermatozoa, Live/dead staining",human sperm; human sperm pre-treated with Ac-B,92 (±5)%
same,MEC as per Sander and Cramer Test,"mouse spermatozoa; Mouse spermatozoa (N = 10), all immobilized within 20 seconds",60 (±2) microgram per ml
same,"MEC, Sander-Cramer test",mouse spermatozoa; mice,60 µg/mL
same,MEC as per Sander and Cramer Test,"rat spermatozoa [3]; Rat spermatozoa (N = 10), all immobilized within 20 seconds",60 (±2) microgram per ml
same,"MEC, Sander-Cramer test",rat spermatozoa [3]; rats,60 µg/mL
